# Entries after “also recorded” stand apart in the source; their conditions may differ.
# Assay: NMR detection of 13C/15N-labeled RNA in mouse serum sampled three hours after inoculation into the tail
# Assay type: in vivo, mice (BALB/cAnNCr)
# Details: for signals derived from base pairs, 500 MHz 1H-NMR spectra of exchangeable protons (imino protons) / signals derived from nucleic acid bases, 500 MHz 1H-NMR spectra of non-exchangeable protons (9 to 6.5 ppm): 25° C.
# Description: Four female SPF/VAF mice (BALB/cAnNCr, 8 weeks old, No. 1 to No. 4) supplied by Charles River Japan, Inc. were used for the experiment.
# The abovementioned oligonucleotide (5 mg) was dissolved in 120 μl of a physiological saline solution to prepare four […] samples. Two samples were administered without a drug delivery system. The abovementioned histone subunit mixture was added to the remaining two samples to form a complex. • Sample 1: ^13C—^15N-labeled RNA (inoculated into and sampled from No. 1 mouse) • Sample 2: ^13C—^15N-labeled RNA (inoculated into and sampled from No. 2 mouse) • Sample 3: the complex of ^13C—^15N-labeled RNA and the drug delivery system (inoculated into and sampled from No. 3 mouse) • Sample 4: the complex of ^13C—^15N-labeled RNA and the drug delivery system (inoculated into and sampled from No. 4 mouse)
# Each sample solution (100 μl), which was adjusted to 62.5 mg/kg, was inoculated into the tail of the abovementioned mice. Three hours after the inoculation, the mice were anesthetized with ether and about 1 ml of whole blood was sampled from the heart. This whole blood was allowed to stand at room temperature for 30 minutes, and then centrifuged at 1,500 rpm at room temperature for 15 minutes. Supernatant serum obtained by the centrifugation was subjected to NMR measurement as follows. Heavy water (20 μl) was added to the samples (400 μl each) obtained by the abovementioned centrifugation, and the measurement of NMR spectra was carried out at 25° C. A DRX-500 NMR spectrometer (BRUKER) was used for the measurement. Pre-saturation was carried out for the measurement of non-exchangeable protons and jump-and-return pulses were used for the measurement of exchangeable imino proton spectra.
# [1] = mouse serum, three hours after inoculation, 62.5 mg/kg, 62.5 mg/kg
# [2] = mouse serum, three hours after inoculation, 62.5 mg/kg, listed as Sample 2, 62.5 mg/kg
substance,measurement,setting,value
"Sample 1: oligonucleotide comprising 43 bases shown in SEQ ID No. 1, RNA labeled with 13C and 15N, administered without a drug delivery system (antisense GGGAGAGGGCAACCUGACCUGUUAUCAUCGCAAGAAGCUUCCG; RNA, phosphodiester; uniformly 13C/15N isotope-labeled ribonucleotides)",detection of the oligonucleotide by NMR,"complex with the drug delivery system (histone subunit mixture) formed, mouse serum, three hours after inoculation",entire length of the oligonucleotide was detected
same,13C-1H HMQC spectra of non-exchangeable protons,"mouse serum, three hours after inoculation, 62.5 mg/kg","Only noise, and no spectrum derived from RNA"
same,"signals derived from base pairs, 500 MHz 1H-NMR spectra of exchangeable protons (imino protons)",[1],Absolutely no signal; also recorded: barely detected
same,"signals derived from nucleic acid bases, 500 MHz 1H-NMR spectra of non-exchangeable protons (9 to 6.5 ppm)",[1],only extremely weak signals; also recorded: barely detected
same,"signals derived from base pairs, 500 MHz 1H-NMR spectra of exchangeable protons (imino protons)",[2],Absolutely no signal; also recorded: barely detected
same,"signals derived from nucleic acid bases, 500 MHz 1H-NMR spectra of non-exchangeable protons (9 to 6.5 ppm)",[2],only extremely weak signals; also recorded: barely detected
same,detection of the oligonucleotide by NMR,"no complex with the drug delivery system formed, mouse serum, three hours after inoculation",barely detected
same,time the antisense chain existed in the blood,"when the drug delivery system was used, mice",up to 3 hours
same,decomposition of the RNA present in the blood,"when the drug delivery system was used, mice, three hours after inoculation",did not undergo partial decomposition
